Test results reported in ChEMBL document CHEMBL1125953, “Probing the inhibition of leukotriene A4 hydrolase based on its aminopeptidase activity” (Bioorg Med Chem Lett, 1991).
Each block holds one molecule with its values, some of them ahead of it.

Tests used:
[1] = molecular target: T1, Leukotriene A-4 hydrolase (Homo sapiens, UniProt P09960); test: Compound was tested for inhibitory activity against Leukotriene A4 hydrolase from human leukocytes; NI means no inhibition at 1 mM
T1 sequence (P09960 whole entry): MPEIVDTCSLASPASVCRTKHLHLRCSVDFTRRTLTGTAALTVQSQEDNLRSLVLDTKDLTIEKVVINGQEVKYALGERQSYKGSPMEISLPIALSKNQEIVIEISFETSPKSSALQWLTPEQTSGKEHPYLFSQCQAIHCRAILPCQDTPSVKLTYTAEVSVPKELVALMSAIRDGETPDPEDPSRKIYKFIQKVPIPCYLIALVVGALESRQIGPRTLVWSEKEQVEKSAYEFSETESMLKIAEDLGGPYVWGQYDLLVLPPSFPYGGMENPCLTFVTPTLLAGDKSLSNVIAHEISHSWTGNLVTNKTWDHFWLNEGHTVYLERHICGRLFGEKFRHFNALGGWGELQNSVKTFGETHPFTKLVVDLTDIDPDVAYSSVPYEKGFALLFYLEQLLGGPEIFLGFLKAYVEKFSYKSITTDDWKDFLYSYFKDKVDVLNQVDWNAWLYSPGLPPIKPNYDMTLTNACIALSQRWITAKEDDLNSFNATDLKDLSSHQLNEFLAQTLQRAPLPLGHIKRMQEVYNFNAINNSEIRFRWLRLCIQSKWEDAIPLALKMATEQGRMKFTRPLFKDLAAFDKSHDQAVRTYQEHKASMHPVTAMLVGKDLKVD

[2] = molecular target: T1, Leukotriene A-4 hydrolase; test: Inhibitory activity against Leukotriene A4 hydrolase from human leukocytes
[3] = Ratio of catalytic constant to that of Michaelis-Menten constant for LTA4 hydrolase-catalyzed hydrolysis was determined
[4] = substrate: CCCCC/C=C\C/C=C\C=C\C=C\[C@@H]1O[C@H]1CCCC(=O)O; test: (§1) Michaelis-Menten constant of compound for Leukotriene A4 hydrolase catalyzed hydrolysis was determined
[5] = substrate: NC(N)=NCCC[C@@H](N)C(=O)Nc1ccc([N+](=O)[O-])cc1; test: as §1
[6] = substrate: NCCCC[C@@H](N)C(=O)Nc1ccc([N+](=O)[O-])cc1; test: as §1
[7] = substrate: CC(C)C[C@H](N)C(=O)Nc1ccc([N+](=O)[O-])cc1; test: as §1
[8] = substrate: C[C@@H](N)C(=O)Nc1ccc([N+](=O)[O-])cc1; test: as §1
[9] = substrate: O=C(Nc1ccc([N+](=O)[O-])cc1)[C@@H]1CCCN1; test: as §1
[10] = substrate: C[C@H](N)C(=O)Nc1ccc([N+](=O)[O-])cc1; test: Maximum velocity of amino acid amides was tested as substrates for Leukotriene A4 hydrolase
[11] = substrate: CCCCC/C=C\C/C=C\C=C\C=C\[C@@H]1O[C@H]1CCCC(=O)O; test: (§2) Maximum velocity of amino acid amides was tested as substrates for Leukotriene A4 hydrolase catalyzed hydrolysis
[12] = substrate: NC(N)=NCCC[C@@H](N)C(=O)Nc1ccc([N+](=O)[O-])cc1; test: as §2
[13] = substrate: CC(C)C[C@H](N)C(=O)Nc1ccc([N+](=O)[O-])cc1; test: as §2
[14] = substrate: O=C(Nc1ccc([N+](=O)[O-])cc1)[C@@H]1CCCN1; test: as §2
[15] = substrate: NCCCC[C@@H](N)C(=O)Nc1ccc([N+](=O)[O-])cc1; test: (§3) Maximum velocity of amino acid amides was tested as substrates for LTA4 hydrolase-catalyzed hydrolysis
[16] = substrate: C[C@@H](N)C(=O)Nc1ccc([N+](=O)[O-])cc1; test: as §3

Molecule: N[C@H](Cc1ccccc1)[C@H](O)C(=O)O
IC50 [1]: No inhibition

Molecule: CCCCC/C=C\C\C=C/C=C/C=C/[C@@H]1O[C@H]1CCCC(=O)O
k cat/Km [3]: 90000 M⁻¹ s⁻¹

Molecule: N[C@@H](Cc1ccccc1)[C@H](O)C(=O)O
IC50 [2]: > 1000 µM

Molecule: CCOC(=O)CC(F)(F)C(=O)/C=C/c1ccccc1
IC50 [2]: > 5000 µM

Molecule: COC(=O)[C@H](O)[C@@H](N)Cc1ccccc1
IC50 [2]: > 500 µM

Molecule: COC(=O)[C@@H](O)[C@H](N)Cc1ccccc1
IC50 [1]: No inhibition

Molecule: C[C@H](CS)C(=O)N1CCC[C@H]1C(=O)O [CAPTOPRIL]
IC50 [2]: 0.07 µM

Molecule: NC(Cc1ccccc1)P(=O)(O)NCC(=O)O (stereo unspecified)
IC50 [2]: ~200 µM

Molecule: COC(=O)C(S)[C@@H](N)Cc1ccccc1 (stereo partly specified)
IC50 [2]: ~250 µM

Molecule: COC(=O)C(S)[C@H](N)Cc1ccccc1 (stereo partly specified)
IC50 [2]: > 250 µM

B1: Leukotriene A-4 hydrolase (Homo sapiens), P09960 (protein)
chain: MPEIVDTCSLASPASVCRTKHLHLRCSVDFTRRTLTGTAALTVQSQEDNLRSLVLDTKDLTIEKVVINGQEVKYALGERQSYKGSPMEISLPIALSKNQEIVIEISFETSPKSSALQWLTPEQTSGKEHPYLFSQCQAIHCRAILPCQDTPSVKLTYTAEVSVPKELVALMSAIRDGETPDPEDPSRKIYKFIQKVPIPCYLIALVVGALESRQIGPRTLVWSEKEQVEKSAYEFSETESMLKIAEDLGGPYVWGQYDLLVLPPSFPYGGMENPCLTFVTPTLLAGDKSLSNVIAHEISHSWTGNLVTNKTWDHFWLNEGHTVYLERHICGRLFGEKFRHFNALGGWGELQNSVKTFGETHPFTKLVVDLTDIDPDVAYSSVPYEKGFALLFYLEQLLGGPEIFLGFLKAYVEKFSYKSITTDDWKDFLYSYFKDKVDVLNQVDWNAWLYSPGLPPIKPNYDMTLTNACIALSQRWITAKEDDLNSFNATDLKDLSSHQLNEFLAQTLQRAPLPLGHIKRMQEVYNFNAINNSEIRFRWLRLCIQSKWEDAIPLALKMATEQGRMKFTRPLFKDLAAFDKSHDQAVRTYQEHKASMHPVTAMLVGKDLKVD
Km [4]: 7.6 µM
Km [5]: 200 µM
Km [6]: 100 µM
Km [7]: 300 µM
Km [8]: 500 µM
Km [9]: 100 µM
Vmax (nM min-1 mg-1) [10]: 0
Vmax (nM min-1 mg-1) [11]: 572
Vmax (nM min-1 mg-1) [12]: 140
Vmax (nM min-1 mg-1) [13]: 130
Vmax (nM min-1 mg-1) [14]: 130
Vmax (nM min-1 mg-1) [15]: 30
Vmax (nM min-1 mg-1) [16]: 530

The next lines start with the values.

IC50 [2]: ~100 µM
Molecule: N[C@H](Cc1ccccc1)[C@H](O)C(=O)NCCC(=O)O

k cat/Km [3]: 350 M⁻¹ s⁻¹
Molecule: NCCCC[C@@H](N)C(=O)Nc1ccc([N+](=O)[O-])cc1

k cat/Km [3]: 1500 M⁻¹ s⁻¹
Molecule: O=C(Nc1ccc([N+](=O)[O-])cc1)[C@@H]1CCCN1

k cat/Km [3]: 1200 M⁻¹ s⁻¹
Molecule: C[C@@H](N)C(=O)Nc1ccc([N+](=O)[O-])cc1

k cat/Km [3]: 750 M⁻¹ s⁻¹
Molecule: NC(N)=NCCC[C@@H](N)C(=O)Nc1ccc([N+](=O)[O-])cc1

IC50 [2]: ~80 µM
Molecule: N[C@@H](Cc1ccccc1)[C@H](O)C(=O)NCCC(=O)O

IC50 [1]: No inhibition
Molecule: COC(=O)[C@H](O)[C@H](N)Cc1ccccc1

k cat/Km [3]: 500 M⁻¹ s⁻¹
Molecule: CC(C)CC(N)C(=O)Nc1ccc([N+](=O)[O-])cc1 (single isomer, unassigned)
